# Test results: ChEMBL document CHEMBL1157539, “Thousands of chemical starting points for antimalarial lead identification” (Nature, 2010)
# Tested on: Plasmodium falciparum
# Assay: GSK_TCMDC: Inhibition of Plasmodium falciparum 3D7 in whole erythrocytes, using parasite LDH activity as an index of growth.
# Type: functional, organism-based
# Conditions: Plasmodium falciparum, 3D7
row,SMILES,XC50
1,O=C(Cc1c[nH]cn1)Nc1cccc(-c2ccc(-c3nc4cc(C(F)(F)F)ccc4[nH]3)cc2)c1,700 nM
2,CC(C)CNCc1cccc(-c2ccc(CN(C(=O)Nc3ccccc3)C3CCN(Cc4ccccc4)CC3)cc2)c1,476 nM
3,O=C(NC1CCCCC1)N(Cc1cccc(-c2ccc(CNCCc3ccccc3)cc2)c1)C1CCN(Cc2ccccc2)CC1,650 nM
4,COc1ccc(CNCCc2cccs2)cc1-c1ccc(S(=O)(=O)NCCN2CCCC2)s1,877 nM
5,O=C(Nc1ccc(F)cc1F)NC1CCN(c2ccnc3cc(Cl)ccc23)C1 (stereo not drawn),245 nM
6,CN(C)CCn1c(=N)n(CC(O)c2ccc(Cl)c(Cl)c2)c2ccccc21 (stereo not drawn),798 nM
7,Cc1cc(N[C@@H](CC(C)C)C(=O)NCCOc2ccccc2)nc(NCCc2ccc(F)cc2)n1,1290 nM
8,c1ccc(-n2cncn2)cc1,591 nM
9,Cc1cc(CNCC(CCNc2cc(=O)c3ccccc3[nH]2)NCc2cc(Br)cc(Br)c2)oc1C (stereo not drawn),894 nM
10,COc1c(Br)cc(Br)cc1-c1ccc(CN2CC3CCC2CC3)[nH]1,693 nM
11,CCc1cn(CCS(C)(=O)=O)c2ccc(C(=O)N[C@@H](Cc3ccccc3)[C@H](O)CNC(C)(C)CCCC(C)C)cc12,877 nM
12,Nc1c2ccccc2nc2ccc(-c3ccccc3)cc12,140 nM
13,Nc1ccc2[nH]cc(C3CCN(CC4CCN(C(=O)/C=C/c5ccc(Cl)c(Cl)c5)CC4)CC3)c2n1,701 nM
14,COc1ccc2ncc(C#N)c(CCN3C[C@H](CNCc4ccccc4)[C@H](O)C3)c2n1,1060 nM
15,Cc1[nH]c2ccc([N+](=O)[O-])cc2c1C1=CCN(C)CC1,335 nM
16,O=C(Nc1cccc(OC2CCN(Cc3ccsc3)CC2)c1)c1ccc(C(F)(F)F)cc1,765 nM
17,FC(F)(F)c1ccc2[nH]c(-c3ccc(-c4ccc(CN5CCN(c6ccncc6)CC5)cc4)cc3)nc2c1,62.4 nM
18,OCc1ccc(-c2cncc(Nc3cccc(Cl)c3)c2)cc1,74.3 nM
19,CCCCCCOc1ccc(C(=O)NCCCC2CCN(CCCCCNC(=O)C=Cc3ccc(Cl)c(Cl)c3)CC2)cc1,854 nM
20,Cc1cccc(C(=O)Nc2ccc(N3CCCN(Cc4cccc(O)c4)CC3)cc2)c1,1420 nM
21,O=S(=O)(/C=C/c1ccccc1)N(Cc1ccc(-c2ccc(CNCCc3ccccn3)cc2)cc1)CC1CCCCN1 (stereo not drawn),742 nM
22,CCc1c(C)c2ccc3c(c2oc1=O)CN(CCc1ccc(F)cc1)CO3,1230 nM
23,COc1ccc(-c2cnc(N)c(-c3ccc(C(N)=O)cc3)c2)cc1OC,897 nM
24,O=C(Nc1ccc(Cl)cc1)OCCn1nnnc1C(c1ccc(Cl)cc1)N1CCOCC1 (stereo not drawn),1180 nM
25,COc1ccc2c(NN=Cc3ccccc3F)ccnc2c1,213 nM

row,SMILES,XC50
1,COc1ccc(CON2C(=N)N=C(N)NC2(C)C)cc1OC,6.06 nM
2,COc1cc2nc(N3CCC(CNC(=O)c4ccc(NC(=O)c5ccc(Cl)cc5)cc4)CC3)nc(N)c2cc1OC,264 nM
3,Nc1nc(N)c2c(ccc3c2ccn3Cc2ccc(-c3ccccc3)cc2)n1,48.3 nM
4,C=CCOC(=O)N1CCC(CNCc2ccc(-c3ccc(-c4nc5ccccc5[nH]4)s3)cc2)C1 (stereo not drawn),229 nM
5,CCN(CC)c1ccc2nc(N)nc(N)c2c1Cl,30.9 nM
6,CCNc1cc(C(=O)N[C@@H](Cc2ccccc2)[C@H](O)CNC2CCC(C)(C)C2)cc(N2CCCCS2(=O)=O)c1 (stereo partly drawn),138 nM
7,O=[N+]([O-])c1cccc(-n2nc(NCc3ccc(Cl)cc3)nc2-c2ccc(F)c(C(F)(F)F)c2)c1,243 nM
8,CNCc1ccc(-c2ccc3ccnc(N)c3c2)cc1,262 nM
9,COc1ccc(CNC(=O)c2cnc3c(O)cccc3c2Nc2cccc(NC(=O)c3ccc(Cl)c([N+](=O)[O-])c3)c2)cc1,945 nM
10,CCCCN(CCCC)CCCCNc1c2ccc(Cl)cc2nc2ccc(OC)cc12,175 nM
11,CN(C)Cc1cc(Nc2ccnc3cc(Cl)ccc23)ccc1O,9.49 nM
12,COc1ccc(Cl)cc1-c1nc(C(=O)NCCN2CCCCC2)c(C)s1,938 nM
13,CC(=NNC(S)=NCCc1ccccc1)c1ccccn1,218 nM
14,COc1cc2cc(Cc3cnc(N)nc3N)ccc2c(OC)c1OC,239 nM
15,O=C(Nc1cccc(CN2CCN(C(=O)c3cccs3)CC2)c1)c1cccs1,782 nM
16,CCN1C(=O)N(CCC(C)C)C2(CCN(Cc3ccc(OC)cc3O)CC2)C1=O,868 nM
17,COc1cccc2cc(C(=O)N[C@@H](CC(C)C)C(=O)NC3CC[C@@H](C)N(C(=O)Nc4ccncc4)CC3=O)oc12 (stereo partly drawn),292 nM
18,O=C(/C=C/c1ccc(Cl)c(Cl)c1)NCCCCCN1CCC(NC(=O)Nc2ccc(Cl)cc2Cl)CC1,640 nM
19,Cc1ccc2c(Cl)c(C(=O)N3CC(C)OC(C)C3)sc2c1 (stereo not drawn),176 nM
20,CC(C)C(=O)ONC1=NC(C)(C)N(OCCCOc2cc(Cl)c(Cl)cc2Cl)C(NOC(=O)C(C)C)=N1,26.6 nM
21,COc1cc(OC)c2c(c1Cl)O[C@]1(C2=O)C(=O)C(Cc2ccccc2)(Cc2ccccc2)C(=O)C[C@H]1C,974 nM
22,C=CCn1c(Sc2ccc(C#N)c([N+](=O)[O-])c2)nnc1-c1ccc(OC)cc1,795 nM
23,CS(=O)(=O)c1ccc(CNCc2ccc(-c3cccc(-c4nc5cc(C(F)(F)F)ccc5[nH]4)c3)cc2)cc1,138 nM
24,COc1ccccc1-c1ccc2nnc(SCC(=O)Nc3ccc4c(c3)OCCO4)n2n1,716 nM
25,O=C(/C=C/c1cc([N+](=O)[O-])ccc1Cl)NC1CCC(CN2CCC(c3c[nH]c4ccccc34)CC2)CC1 (stereo not drawn),740 nM

row,SMILES,XC50
1,c1ccc(-c2cc(NCc3cccc4ccccc34)c3[nH]ncc3n2)cc1,518 nM
2,COc1ccccc1Cn1ccnc1SCC(=O)Nc1cccc(C(F)(F)F)c1,907 nM
3,CCCC(=O)Nc1ccc(OCCCCN(Cc2ccccc2C(F)(F)F)c2ccc(C(F)(F)F)c(C#N)c2)cc1,973 nM
4,O=C(Nc1cc(Cl)cc(Cl)c1)c1cnn(-c2ccc(F)cc2)c1C1CCNCC1,853 nM
5,CC(C)(C)c1ccc(CN(C[C@@H](O)CNS(=O)(=O)c2cc(Cl)cc(Cl)c2)C(C)(C)C)cc1,935 nM
6,O=C(Nc1ccc2c(c1)CCN2C1CCN(Cc2ccc(O)cc2)C1)c1ccco1 (stereo not drawn),897 nM
7,COc1cccc(CN2CCC(C(=O)Nc3ccc(-c4nc5ccccc5[nH]4)cc3)CC2)c1,627 nM
8,O=C(Nc1ccc(Oc2ccccc2)cc1)N(CCN1CCCC1)Cc1ccc(-c2ccc(CN3CCNCC3)cc2)cc1,892 nM
9,Cc1[nH]c(C)c(-c2ccc(-c3ccccc3)nc2)c(=O)c1Br,661 nM
10,O=C1CCCN1CCCNCc1cccc(-c2ccc(-c3nc4ccccc4[nH]3)s2)c1,859 nM
11,N#Cc1cccc(Nc2ncc3c(-c4cccc(NC(=O)Cc5cccc(Cl)c5)c4)c[nH]c3n2)c1,423 nM
12,Cc1ccc(N(CCC(=N)N)Cc2ccccc2)cc1,657 nM
13,CC(C)NCc1ccc(-c2ccc(-c3nc4cc(C(F)(F)F)ccc4[nH]3)cc2)cc1,266 nM
14,Cc1cccc(CNc2nc(C)cc(NCCC(=O)NCCOc3ccccc3)n2)c1,871 nM
15,CN(C(=O)c1snnc1-c1ccccc1)C1CCN(CCCCCNC(=O)/C=C/c2ccc(Cl)c(Cl)c2)CC1,186 nM
16,OCC1CCN(Cc2ccc(-c3cccc(-c4nc5cc(C(F)(F)F)ccc5[nH]4)c3)cc2)CC1,483 nM
17,COc1cccc(C(C)(C)NC[C@@H](O)[C@H](Cc2ccccc2)NC(=O)c2cc(C3CCCC3)cc(N3CCCCS3(=O)=O)c2F)c1,28.9 nM
18,COc1ccc2nccc([C@@H](O)CN3CCC(NCc4ccc5nc[nH]c(=O)c5c4)CC3)c2c1,921 nM
19,CCCNC[C@@H](O)[C@H](Cc1ccccc1)NC(=O)c1cc(NCC)cc(N2CCCC2=O)c1,760 nM
20,CCCC(=O)Nc1ccc(OCCN(Cc2ccccc2OC(F)(F)F)c2ccc(C(F)(F)F)c(C#N)c2)cc1,788 nM
21,O=C(Cc1ccc(NC(=O)c2ccc(O)c(-c3cccc([N+](=O)[O-])c3)c2)cc1)NCCN1CCCCC1,895 nM
22,O=C(Nc1ccc(OC2CCN(Cc3ccsc3)CC2)c(Cl)c1)c1cccs1,600 nM
23,CS(=O)(=O)c1ccc(-c2cnc(N)c(-c3ccc(O)cc3)c2)cc1,1360 nM
24,CC(=O)Nc1ccc(CN2CCN(C(c3ccc(F)cc3)c3ccc(F)cc3)CC2)cc1,831 nM
25,CCN(CC)CCCNCc1ccc(-c2ccc(C(F)(F)F)cc2)cc1,993 nM

row,SMILES,XC50
1,O=C(Nc1ccccc1)N(Cc1cccc(-c2ccc(CNCCc3ccccc3)cc2)c1)C1CCN(Cc2ccccc2)CC1,349 nM
2,c1ccc2ncc(CNCCCCCCCCNCc3cnc4ccccc4c3)cc2c1,846 nM
3,Nc1nc(N)c2c(CCc3ccc(Cl)c(Cl)c3)cccc2n1,669 nM
4,CC(CCNc1c2ccccc2nc2ccccc12)N1CCN(C)CC1 (stereo not drawn),803 nM
5,N#Cc1cncc(-c2nc3c(N4CCCC(N)C4)cccc3n2CCNCc2ccccc2)c1 (stereo not drawn),768 nM
6,Cn1nccc1C(=O)NCCNCc1cccc(-c2ccc(-c3nc4ccccc4[nH]3)cc2)c1,473 nM
7,Cc1cc(N[C@@H](Cc2ccccc2)C(=O)NC2CCCC2)nc(NCC2CCCCC2)n1,1170 nM
8,Nc1ncc(-c2ccsc2)cc1-c1nc2ccccc2[nH]1,851 nM
9,O=C1NC(C(=O)Nc2ccccc2)C(c2ccccc2)S1 (stereo not drawn),168 nM
10,COc1c(F)cc(CC(C)NCC(O)c2cccc(Cl)c2)cc1F (stereo not drawn),1160 nM
11,O=c1c2ccc(F)cc2sn1-c1ccc(Cl)cc1,1150 nM
12,COCCNCc1cccc(-c2ccc3c(Nc4cc(O)c(Cl)cc4F)ccnc3c2)c1,114 nM
13,Cc1cc(=NN=CC=Cc2ccccc2)c2ccc(F)cc2[nH]1,590 nM
14,COc1cccc(CN2CCCN(Cc3cccc(NC(=O)c4cc5ccccc5s4)c3)CC2)c1,1010 nM
15,CCn1c(-c2ccccc2)cc2nnc3ccccc3c21,769 nM
16,COc1ccc(CCn2c(=N)c(C(=O)NC3CCCC3)cc3c(=O)n4ccccc4nc32)cc1,678 nM
17,CCCC(=O)Nc1ccc(OCCCN(Cc2ccccc2C(F)(F)F)c2ccc(C#N)c(C(F)(F)F)c2)cc1,926 nM
18,O=S(=O)(Nc1cccc(CCN2CCCCC2CCN2CCCC2)c1)c1cccc2ccccc12 (stereo not drawn),819 nM
19,O=C(/C=C/c1ccc(Cl)c(Cl)c1)NCCCCCN1CCCN(C(=O)Nc2cccc(C(F)(F)F)c2)CC1,866 nM
20,COC(=O)CCCCOc1cc(Cc2cnc(N)nc2N)cc(OC)c1OC,173 nM
21,Oc1ccc(CCNc2nc(NCCOc3ccccc3-c3ccccc3)nc(N3CCNCC3)n2)cc1,1040 nM
22,O=C(/C=C/c1ccc(Cl)c(Cl)c1)NCCCCCN1CCCN(C(=O)Nc2ccc(Cl)c(C(F)(F)F)c2)CC1,730 nM
23,CN(C)c1cc(NN=Cc2cc(Cl)ccc2O)nc(N(C)C)n1,703 nM
